Drawing on ChEMBL document CHEMBL5465560, “Selectivity Literature for EUbOPEN Chemogenomic Library” (2024), this text covers % of control, % binding and % of inhibition for twelve compounds.

Test [1] addresses Aurora kinase B (Homo sapiens, UniProt Q96GD4). Kind of test: Selectivity interaction (Kinase panel (Z-LYTE Assay)) EUB0001632a AURKB. To be noted: at 10 µM.
Test [2] deals with T1, Serine/threonine-protein kinase 3 (Homo sapiens) (UniProt Q13188).
T1 sequence (whole entry): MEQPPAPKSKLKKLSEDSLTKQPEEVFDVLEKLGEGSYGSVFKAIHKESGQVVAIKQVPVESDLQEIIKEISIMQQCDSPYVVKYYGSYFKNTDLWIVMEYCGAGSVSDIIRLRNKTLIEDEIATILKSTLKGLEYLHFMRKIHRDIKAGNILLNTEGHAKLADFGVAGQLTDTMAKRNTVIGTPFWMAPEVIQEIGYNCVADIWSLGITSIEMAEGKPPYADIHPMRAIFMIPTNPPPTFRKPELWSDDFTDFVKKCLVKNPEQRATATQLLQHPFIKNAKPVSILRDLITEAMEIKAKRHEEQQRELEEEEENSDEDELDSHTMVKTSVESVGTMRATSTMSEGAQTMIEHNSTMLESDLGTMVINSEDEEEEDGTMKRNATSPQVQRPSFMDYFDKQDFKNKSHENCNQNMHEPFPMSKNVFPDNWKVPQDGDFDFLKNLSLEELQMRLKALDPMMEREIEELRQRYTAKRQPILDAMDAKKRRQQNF
Kind of test: Selectivity interaction (Kinase panel (Z-LYTE Assay)) EUB0001632a STK3. To be noted: at 10 µM.

The target in test [3] is Serine/threonine-protein kinase 38-like (Homo sapiens) (UniProt Q9Y2H1). The experiment in a line: Selectivity interaction (KinomeScan (DiscoverX)) EUB0000607a STK38L. To be noted: at 10 µM.
Test [4] addresses T2, Tyrosine-protein kinase JAK3 (Homo sapiens) (UniProt P52333).
T2 sequence (whole entry): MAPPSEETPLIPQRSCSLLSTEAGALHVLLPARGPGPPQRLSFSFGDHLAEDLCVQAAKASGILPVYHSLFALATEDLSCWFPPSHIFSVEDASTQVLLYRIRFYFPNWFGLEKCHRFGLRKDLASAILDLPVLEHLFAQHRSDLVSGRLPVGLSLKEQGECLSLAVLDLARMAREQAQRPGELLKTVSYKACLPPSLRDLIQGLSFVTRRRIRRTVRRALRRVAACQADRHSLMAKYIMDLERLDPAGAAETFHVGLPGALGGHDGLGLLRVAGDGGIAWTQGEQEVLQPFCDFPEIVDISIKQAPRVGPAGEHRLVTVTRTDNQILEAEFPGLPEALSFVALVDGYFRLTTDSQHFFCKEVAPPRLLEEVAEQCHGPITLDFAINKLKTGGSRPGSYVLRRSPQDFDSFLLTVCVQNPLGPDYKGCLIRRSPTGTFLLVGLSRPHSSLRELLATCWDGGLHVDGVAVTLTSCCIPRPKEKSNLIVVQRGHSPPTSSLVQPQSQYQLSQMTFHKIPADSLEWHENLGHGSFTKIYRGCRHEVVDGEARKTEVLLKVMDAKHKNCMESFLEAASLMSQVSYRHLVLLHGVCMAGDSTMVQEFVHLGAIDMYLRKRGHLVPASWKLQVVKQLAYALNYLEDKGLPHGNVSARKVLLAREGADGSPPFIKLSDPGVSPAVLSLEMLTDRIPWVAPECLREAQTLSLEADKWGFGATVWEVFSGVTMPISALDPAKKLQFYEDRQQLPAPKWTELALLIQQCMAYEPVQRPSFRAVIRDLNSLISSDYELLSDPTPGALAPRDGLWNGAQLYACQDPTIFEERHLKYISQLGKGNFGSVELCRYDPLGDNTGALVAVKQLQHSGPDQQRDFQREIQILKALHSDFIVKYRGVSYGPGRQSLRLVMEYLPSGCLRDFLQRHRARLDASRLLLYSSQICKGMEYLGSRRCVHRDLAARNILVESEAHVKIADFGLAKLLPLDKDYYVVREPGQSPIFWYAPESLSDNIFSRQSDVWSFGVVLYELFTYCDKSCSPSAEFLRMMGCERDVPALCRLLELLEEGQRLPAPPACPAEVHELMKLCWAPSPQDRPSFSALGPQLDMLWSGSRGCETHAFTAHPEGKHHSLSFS
As to conditions: at 10 µM.

Test [5] addresses Mitogen-activated protein kinase 7 (Homo sapiens) (UniProt Q13164). Kind of test: Selectivity interaction (KinomeScan (DiscoverX)) EUB0000229b MAPK7. As to conditions: at 10 µM.
Test [6] has as its system Epidermal growth factor receptor (Homo sapiens), P00533 [UNDEFINED MUTATION]. Kind of test: Selectivity interaction (KinomeScan (DiscoverX)) EUB0000229b EGFR. As to conditions: at 1 µM.
In test [7] the target is D(3) dopamine receptor (Homo sapiens, UniProt P35462). Kind of test: Selectivity interaction (GPCR panel (PDSP screen)) EUB0001079a DRD3. As to conditions: at 10 µM.
Chain of D(3) dopamine receptor (P35462 whole entry): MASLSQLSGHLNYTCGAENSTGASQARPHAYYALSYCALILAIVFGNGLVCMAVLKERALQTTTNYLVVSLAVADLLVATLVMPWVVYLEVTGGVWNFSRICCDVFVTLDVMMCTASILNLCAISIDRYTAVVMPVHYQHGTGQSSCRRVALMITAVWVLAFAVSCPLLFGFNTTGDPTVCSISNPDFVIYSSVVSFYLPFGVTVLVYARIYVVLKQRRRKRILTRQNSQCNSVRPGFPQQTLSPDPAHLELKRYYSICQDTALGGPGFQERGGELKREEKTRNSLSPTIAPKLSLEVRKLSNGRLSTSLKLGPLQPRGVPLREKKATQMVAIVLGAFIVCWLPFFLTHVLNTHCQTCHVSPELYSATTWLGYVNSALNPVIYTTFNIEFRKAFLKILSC
Test [8] concerns the target Cyclin-dependent kinase 11B (Homo sapiens) (UniProt P21127). Kind of test: Selectivity interaction (KinomeScan (DiscoverX)) EUB0001619a CDK11B. As to conditions: at 1 µM.
For test [9], the target named is Cyclin-dependent kinase 18 (Homo sapiens) (UniProt Q07002). Kind of test: Selectivity interaction (ActivX KiNativ screen (kinase selectivity in THP-1 cell lysates)) EUB0000639a CDK18. The class given is subcellular. To be noted: lysate, at 0.2 µM.
Chain of Cyclin-dependent kinase 18 (Homo sapiens) (Q07002 whole entry): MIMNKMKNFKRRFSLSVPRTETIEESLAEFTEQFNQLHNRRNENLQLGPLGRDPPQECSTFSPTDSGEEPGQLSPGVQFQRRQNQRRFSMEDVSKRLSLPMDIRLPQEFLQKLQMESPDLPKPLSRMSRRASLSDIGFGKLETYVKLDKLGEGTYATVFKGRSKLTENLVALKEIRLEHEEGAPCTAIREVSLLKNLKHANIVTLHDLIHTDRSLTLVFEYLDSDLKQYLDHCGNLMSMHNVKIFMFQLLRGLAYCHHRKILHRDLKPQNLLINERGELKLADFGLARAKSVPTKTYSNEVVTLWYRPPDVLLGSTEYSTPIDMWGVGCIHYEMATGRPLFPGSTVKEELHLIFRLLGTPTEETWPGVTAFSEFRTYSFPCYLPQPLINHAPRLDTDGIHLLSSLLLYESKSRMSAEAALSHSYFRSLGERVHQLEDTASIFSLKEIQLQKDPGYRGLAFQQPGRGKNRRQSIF
The target in test [10] is Serine/threonine-protein kinase 10 (Homo sapiens) (UniProt O94804). Kind of test: Selectivity interaction (ActivX KiNativ screen (kinase selectivity in THP-1 cell lysates)) EUB0000639a STK10. The format is subcellular. To be noted: lysate, at 0.01 µM.
Chain of Serine/threonine-protein kinase 10 (Homo sapiens) (O94804 whole entry, looked up): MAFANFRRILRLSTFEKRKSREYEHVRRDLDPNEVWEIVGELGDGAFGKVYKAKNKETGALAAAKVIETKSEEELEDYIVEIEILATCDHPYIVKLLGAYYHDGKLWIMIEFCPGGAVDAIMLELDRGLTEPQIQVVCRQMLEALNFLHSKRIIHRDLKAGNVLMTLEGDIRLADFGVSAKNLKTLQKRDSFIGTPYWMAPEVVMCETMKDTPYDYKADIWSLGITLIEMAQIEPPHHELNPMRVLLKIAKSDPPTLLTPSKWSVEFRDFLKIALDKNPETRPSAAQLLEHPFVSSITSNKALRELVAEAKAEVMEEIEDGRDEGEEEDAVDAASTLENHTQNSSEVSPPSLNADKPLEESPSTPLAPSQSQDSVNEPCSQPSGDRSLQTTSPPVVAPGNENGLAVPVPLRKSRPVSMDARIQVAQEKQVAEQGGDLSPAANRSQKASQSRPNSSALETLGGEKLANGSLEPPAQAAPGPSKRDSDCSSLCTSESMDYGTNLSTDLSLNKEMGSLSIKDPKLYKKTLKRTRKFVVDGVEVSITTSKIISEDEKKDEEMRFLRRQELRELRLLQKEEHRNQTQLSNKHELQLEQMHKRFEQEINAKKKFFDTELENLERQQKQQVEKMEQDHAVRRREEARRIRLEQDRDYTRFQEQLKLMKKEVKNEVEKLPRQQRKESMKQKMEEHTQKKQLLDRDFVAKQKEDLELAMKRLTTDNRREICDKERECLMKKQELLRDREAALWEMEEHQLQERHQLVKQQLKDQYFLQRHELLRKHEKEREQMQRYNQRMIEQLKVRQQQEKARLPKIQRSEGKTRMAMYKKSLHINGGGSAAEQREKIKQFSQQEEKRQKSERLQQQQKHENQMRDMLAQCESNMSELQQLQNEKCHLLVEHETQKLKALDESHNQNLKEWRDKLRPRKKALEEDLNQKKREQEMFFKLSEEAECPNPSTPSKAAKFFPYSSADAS
The target in test [11] is Tyrosine-protein kinase Yes (Homo sapiens) (UniProt P07947). Kind of test: Selectivity interaction (ActivX KiNativ screen (kinase selectivity in THP-1 cell lysates)) EUB0000639a YES1. The class given is subcellular. As to conditions: lysate.
Chain of Tyrosine-protein kinase Yes (Homo sapiens) (P07947 2-543 limits assumed): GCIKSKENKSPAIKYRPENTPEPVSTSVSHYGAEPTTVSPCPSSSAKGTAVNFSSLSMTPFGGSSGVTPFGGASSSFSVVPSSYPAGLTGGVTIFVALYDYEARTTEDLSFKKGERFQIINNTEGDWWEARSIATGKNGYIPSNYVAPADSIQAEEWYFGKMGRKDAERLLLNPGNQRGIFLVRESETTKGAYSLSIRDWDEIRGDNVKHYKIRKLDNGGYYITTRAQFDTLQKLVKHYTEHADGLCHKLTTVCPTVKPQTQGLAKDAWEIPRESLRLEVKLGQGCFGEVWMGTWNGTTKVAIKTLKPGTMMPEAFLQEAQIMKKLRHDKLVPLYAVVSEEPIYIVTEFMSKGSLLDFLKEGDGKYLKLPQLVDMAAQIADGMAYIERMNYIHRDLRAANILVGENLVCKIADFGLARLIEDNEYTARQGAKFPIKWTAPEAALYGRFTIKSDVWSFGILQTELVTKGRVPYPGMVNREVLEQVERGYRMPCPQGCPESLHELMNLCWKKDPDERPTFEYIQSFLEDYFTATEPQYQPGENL
The target in test [12] is Serine/threonine-protein kinase 32C (Homo sapiens) (UniProt Q86UX6). To be noted: at 10 µM.
Chain of Serine/threonine-protein kinase 32C (Homo sapiens) (Q86UX6 whole entry): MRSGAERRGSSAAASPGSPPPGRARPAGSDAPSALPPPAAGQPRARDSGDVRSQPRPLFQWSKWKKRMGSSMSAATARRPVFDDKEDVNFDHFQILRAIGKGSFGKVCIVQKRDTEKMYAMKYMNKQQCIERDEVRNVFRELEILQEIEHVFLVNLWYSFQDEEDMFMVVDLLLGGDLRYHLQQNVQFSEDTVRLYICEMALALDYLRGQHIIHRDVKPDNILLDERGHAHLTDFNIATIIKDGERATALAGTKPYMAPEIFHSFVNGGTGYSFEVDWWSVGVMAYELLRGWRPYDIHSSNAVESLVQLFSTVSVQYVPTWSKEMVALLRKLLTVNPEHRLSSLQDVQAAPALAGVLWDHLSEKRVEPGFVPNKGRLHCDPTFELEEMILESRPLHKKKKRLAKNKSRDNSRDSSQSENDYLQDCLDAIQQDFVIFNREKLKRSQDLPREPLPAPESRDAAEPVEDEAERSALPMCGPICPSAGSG
Test [13] concerns the target Serine/threonine-protein kinase 25 (Homo sapiens) (UniProt O00506). The experiment in a line: Selectivity interaction (KinomeScan (DiscoverX)) EUB0001049a STK25. To be noted: at 1 µM.
Test [14] relates to Tyrosine-protein kinase ABL1 (Homo sapiens), P00519 [T315I]. The experiment in a line: Selectivity interaction (KinomeScan (DiscoverX)) EUB0001049a ABL1. To be noted: at 1 µM.
In test [15] the target is Homeodomain-interacting protein kinase 1 (Homo sapiens, UniProt Q86Z02). The experiment in a line: Selectivity interaction (KinomeScan (DiscoverX)) EUB0000618a HIPK1. To be noted: at 10 µM.
For test [16], the target named is Tyrosine-protein kinase ABL2 (Homo sapiens, UniProt P42684). Kind of test: Selectivity interaction (KinomeScan (DiscoverX)) EUB0000618a ABL2. To be noted: at 10 µM.
For test [17], the target named is Tyrosine-protein kinase Yes (Homo sapiens) (UniProt P07947). The experiment in a line: Selectivity interaction (Upstate Kinase Profiler service (Millipore)) EUB0000056c YES1. To be noted: at 1 µM.
Test [18] addresses Platelet-derived growth factor receptor alpha (Homo sapiens, UniProt P16234). The experiment in a line: Selectivity interaction (KinomeScan (DiscoverX)) EUB0000595a PDGFRA. To be noted: at 10 µM.

Molecules are shown by their SMILES.

Chain of Platelet-derived growth factor receptor alpha (P16234 whole entry): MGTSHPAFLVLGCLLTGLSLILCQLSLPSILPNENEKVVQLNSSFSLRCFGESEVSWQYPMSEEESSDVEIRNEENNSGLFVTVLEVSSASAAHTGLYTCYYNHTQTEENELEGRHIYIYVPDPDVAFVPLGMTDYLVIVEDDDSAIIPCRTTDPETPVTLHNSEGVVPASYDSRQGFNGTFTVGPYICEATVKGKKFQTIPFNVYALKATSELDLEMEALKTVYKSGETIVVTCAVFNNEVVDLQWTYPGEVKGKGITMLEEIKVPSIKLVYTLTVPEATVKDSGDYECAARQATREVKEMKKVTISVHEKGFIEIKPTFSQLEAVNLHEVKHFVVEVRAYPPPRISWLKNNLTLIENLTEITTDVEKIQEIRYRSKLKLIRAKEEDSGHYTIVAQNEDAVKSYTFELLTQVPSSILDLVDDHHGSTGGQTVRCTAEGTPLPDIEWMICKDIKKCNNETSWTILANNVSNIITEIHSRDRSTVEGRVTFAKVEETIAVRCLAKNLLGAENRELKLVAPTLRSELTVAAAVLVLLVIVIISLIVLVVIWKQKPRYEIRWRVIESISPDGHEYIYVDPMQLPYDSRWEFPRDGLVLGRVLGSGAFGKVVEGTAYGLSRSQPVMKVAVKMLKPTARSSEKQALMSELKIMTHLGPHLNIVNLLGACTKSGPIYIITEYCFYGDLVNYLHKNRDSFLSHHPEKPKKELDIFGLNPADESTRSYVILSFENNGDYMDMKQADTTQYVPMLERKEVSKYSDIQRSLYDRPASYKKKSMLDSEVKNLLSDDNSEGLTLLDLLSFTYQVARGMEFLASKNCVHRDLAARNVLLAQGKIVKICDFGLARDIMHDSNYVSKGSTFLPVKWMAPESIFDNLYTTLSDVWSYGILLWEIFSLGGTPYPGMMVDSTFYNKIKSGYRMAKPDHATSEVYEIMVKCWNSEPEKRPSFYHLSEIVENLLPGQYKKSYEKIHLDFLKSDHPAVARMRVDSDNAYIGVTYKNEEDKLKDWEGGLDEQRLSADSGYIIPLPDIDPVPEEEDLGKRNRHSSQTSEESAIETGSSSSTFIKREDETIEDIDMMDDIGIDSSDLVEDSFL
Chain of Aurora kinase B (Q96GD4 whole entry): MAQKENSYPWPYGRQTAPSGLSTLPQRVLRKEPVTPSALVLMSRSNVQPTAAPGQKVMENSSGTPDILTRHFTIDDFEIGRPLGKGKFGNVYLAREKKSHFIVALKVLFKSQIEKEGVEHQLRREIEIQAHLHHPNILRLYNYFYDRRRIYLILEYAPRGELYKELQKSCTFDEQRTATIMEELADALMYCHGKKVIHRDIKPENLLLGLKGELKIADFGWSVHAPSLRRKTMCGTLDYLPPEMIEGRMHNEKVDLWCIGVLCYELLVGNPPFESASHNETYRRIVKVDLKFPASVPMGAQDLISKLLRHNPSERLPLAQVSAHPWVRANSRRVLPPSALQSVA
Chain of Serine/threonine-protein kinase 25 (Homo sapiens) (O00506 whole entry, looked up): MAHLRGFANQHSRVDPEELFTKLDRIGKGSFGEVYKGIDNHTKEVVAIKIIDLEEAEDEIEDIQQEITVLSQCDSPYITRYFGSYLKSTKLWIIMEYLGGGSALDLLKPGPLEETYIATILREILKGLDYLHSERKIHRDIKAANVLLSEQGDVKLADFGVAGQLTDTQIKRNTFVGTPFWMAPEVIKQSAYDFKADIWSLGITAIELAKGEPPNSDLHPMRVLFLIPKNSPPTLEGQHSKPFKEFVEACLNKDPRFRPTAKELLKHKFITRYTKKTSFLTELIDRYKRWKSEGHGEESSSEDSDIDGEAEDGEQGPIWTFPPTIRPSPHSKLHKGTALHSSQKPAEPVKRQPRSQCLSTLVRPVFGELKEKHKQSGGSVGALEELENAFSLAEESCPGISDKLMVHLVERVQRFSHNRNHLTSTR

On to `Cn1cc(-n2cnc3c(NCc4nc5cc(Cl)c(Cl)cc5[nH]4)nc(N4CCOCC4)nc32)cn1`, for which the % of control in [1] stood at 11.8%; in test [2] it was 0.418%. `CNC(=O)Nc1ccc(-c2nc(N3CC4CCC(C3)O4)c3cnn(C4CCC5(CC4)OCCO5)c3n2)cc1`: the % of control in test [3] was found to be 100%. In test [4], `Cc1cc([C@@H](C)Nc2ccccc2C(=O)O)c2nc(N3CCOCC3)cc(=O)n2c1` [AZD-6482] registered a % of control of 94%. For `COc1cc(N(C)c2ccnc3ccc(C(F)(F)F)cc23)cc(OC)c1OC`, the % binding in [5] stood at 87%; in test [6], 97%.

Consider `Nc1cnc(N2CCc3cc(S(=O)(=O)Nc4c(F)cc(Cl)cc4F)cc(N4CCCC4=O)c32)nc1` [TP-020n], for which the % of inhibition in test [7] stood at 7.88%. Regarding `N#Cc1cccc(-c2c[nH]c3ncnc(N4CCOCC4)c23)c1`, the % of control in [8] is 100%.

Take `CC[C@@H]1[C@H](F)C(=O)N[C@@H]1COc1nccc2cc(C(N)=O)c(OC)cc12` [ZIMLOVISERTIB]: the % of inhibition in [9] was 0.4%; in test [10] it was -34.8%; in [11] (at 0.01 µM), -8.5%; in test [11] (at 0.04 µM) it was -0.2%; in test [11] (at 0.2 µM), 0.7%; in test [11] (at 1 µM), -11%. In addition, the % of inhibition in [11] (at 5 µM) is -13.3%. The compound `CCN(CC)CCCCNc1ncc2cc(-c3cc(OC)cc(OC)c3)c(NC(=O)NC(C)(C)C)nc2n1` displayed a % of control in test [12] of 100%. As for `COc1cc(Nc2nc(C)cc(-c3cnn4nc(OC)ccc34)n2)cc(C(F)(F)F)c1`, the figures for the % of control in test [13] and in [14] were 91% and 75%, respectively. Turning to `O[C@H]1CC[C@H](Nc2ncc3nc(Nc4c(F)cc(F)cc4F)n([C@H]4CCOC4)c3n2)CC1`, the % of control in test [15] is 93%; in [16] it was 100%. Take `Cc1ccc(-c2ccc3c(ccc4sc5c(c43)NC[C@@H](C)NC5=O)n2)cn1`: the % of inhibition in [17] was found to be 31%. As for `COCC(=O)NC/C=C/c1ccc2ncnc(Nc3ccc(Oc4ccc(C)nc4)c(C)c3)c2c1` [CP-724714], the % of control in test [18] worked out at 56%.
